US10632125B2, “MTH1 inhibitors for treatment of inflammatory and autoimmune conditions” (THOMAS HELLEDAYS STIFTELSE FÖR MEDICINSK FORSKNING, priority 2014, dated 2020)

The molecules below were run on unactivated T-lymphocytes (assay: Cellular assay, unactivated primary T-lymphocytes). Details: not given.
Type: cell-based, human
Experimental: (§1) Cellular Assay and IC50 Value Determination
(§2) The T-lymphocytes are treated with an MTH1 inhibitor, positive control or vehicle for 24-96 hrs. Cell viability can be measured by using standard assays, such as for instance a resazurin assay. In some experiments, the cells are stained with Cell Trace Violet at the start of the culture. The dye is diluted as the cells divide and gives a measurement of cell proliferation (see FIG. 1 for an example).

Structure (SMILES) | effect on unactivated T-lymphocytes (FIG. 1)
Cc1c(Cl)cccc1-c1cc(NCCc2ccc(S(N)(=O)=O)cc2)nc(N)n1 [Example 297, 4-(2-{[2-amino-6-(3-chloro-2-methylphenyl)pyrimidin-4-yl]amino}ethyl)benzene-1-sulfonamide] | unaffected

What follows are molecules tested against MTH1 (Homo sapiens, UniProt P36639) (assay: MTH1 enzymatic assay (malachite green, coupled to pyrophosphatase)). Details: dGTP 100 μM, MTH1 6 nM; 96- or 384-well format; read-out: IC50.
Type: biochemical

Structure (SMILES) | IC50
Cc1c(Cl)cccc1-c1cc(NCCc2ccc(S(N)(=O)=O)cc2)nc(N)n1 [Example 297, 4-(2-{[2-amino-6-(3-chloro-2-methylphenyl)pyrimidin-4-yl]amino}ethyl)benzene-1-sulfonamide] | < 200 nM
COCCNc1cc(-c2cccc(Cl)c2C)nc(N)n1 [Example 704, 6-(3-chloro-2-methyl-phenyl)-N4-(2-methoxyethyl)pyrimidine-2,4-diamine] | < 200 nM
Cc1c(Cl)cccc1-c1cc(NCC2CCOCC2)nc(N)n1 [Example 706, 6-(3-chloro-2-methyl-phenyl)-N4-(tetrahydropyran-4-ylmethyl)pyrimidine-2,4-diamine] | < 200 nM
Cc1c(Cl)cccc1-c1cc(NCC2CCCO2)nc(N)n1 (centres unmarked) [Example 707, 6-(3-chloro-2-methyl-phenyl)-N4-(tetrahydrofuran-2-ylmethyl)pyrimidine-2,4-diamine] | < 200 nM
Cc1c(Cl)cccc1-c1cc(NCC(C)C)nc(N)n1 [Example 709, 6-(3-chloro-2-methyl-phenyl)-N4-isobutyl-pyrimidine-2,4-diamine] | < 200 nM
Cc1c(Cl)cccc1-c1cc(NCCc2ccccc2)nc(N)n1 [Example 713, 6-(3-chloro-2-methyl-phenyl)-N4-(2-phenylethyl)pyrimidine-2,4-diamine] | < 200 nM
Cc1c(Cl)cccc1-c1cc(NCCc2ccncc2)nc(N)n1 [Example 714, 6-(3-chloro-2-methyl-phenyl)-N4-[2-(4-pyridyl)ethyl]pyrimidine-2,4-diamine] | < 200 nM
Cc1c(Cl)cccc1-c1cc(NCCc2ccccn2)nc(N)n1 [Example 715, 6-(3-chloro-2-methyl-phenyl)-N4-[2-(2-pyridyl)ethyl]pyrimidine-2,4-diamine] | < 200 nM
Cc1c(Cl)cccc1-c1cc(NCCc2ccc(O)c(O)c2)nc(N)n1 [Example 727, 4-[2-[[2-amino-6-(3-chloro-2-methyl-phenyl)pyrimidin-4-yl]amino]ethyl]benzene-1,2-diol] | < 200 nM
Cc1c(Cl)cccc1-c1cc(NCCc2cc(O)c(O)c(O)c2)nc(N)n1 [Example 728, 5-[2-[[2-amino-6-(3-chloro-2-methyl-phenyl)pyrimidin-4-yl]amino]ethyl]benzene-1,2,3-triol] | < 200 nM
COC(=O)C1CCC(CNc2cc(-c3cccc(Cl)c3C)nc(N)n2)CC1 (centres unmarked) [Example 731, methyl 4-[[[2-amino-6-(3-chloro-2-methyl-phenyl)pyrimidin-4-yl]amino]methyl]cyclohexanecarboxylate] | < 200 nM
Cc1c(Cl)cccc1-c1cc(NCCc2cnccn2)nc(N)n1 [Example 735, 6-(3-chloro-2-methyl-phenyl)-N4-(2-pyrazin-2-ylethyl)pyrimidine-2,4-diamine] | < 200 nM
Cc1c(Cl)cccc1-c1cc(NCCc2ccc(Br)cc2)nc(N)n1 [Example 736, N4-[2-(4-bromophenyl)ethyl]-6-(3-chloro-2-methylphenyl)pyrimidine-2,4-diamine] | < 200 nM
Cc1c(Cl)cccc1-c1cc(NCCOc2ccc(Cl)cn2)nc(N)n1 [Example 746, 6-(3-chloro-2-methylphenyl)-N4-{2-[(5-chloropyridin-2-yl)oxy]ethyl}pyrimidine-2,4-diamine] | < 200 nM
Cc1c(Cl)cccc1-c1cc(NCCOc2ccc(C#N)cc2)nc(N)n1 [Example 747, 4-(2-{[2-amino-6-(3-chloro-2-methylphenyl)pyrimidin-4-yl]amino}ethoxy)benzonitrile] | < 200 nM

Further lines, results first:

IC50 | Structure (SMILES)
< 200 nM | CCCCNc1cc(-c2cccc(Cl)c2C)nc(N)n1 [Example 703, N4-butyl-6-(3-chloro-2-methyl-phenyl)pyrimidine-2,4-diamine]
< 200 nM | CCOCCCNc1cc(-c2cccc(Cl)c2C)nc(N)n1 [Example 705, 6-(3-chloro-2-methyl-phenyl)-N4-(3-ethoxypropyl)pyrimidine-2,4-diamine]
< 200 nM | CC(C)=CCC/C(C)=C/CNc1cc(-c2cccc(Cl)c2C)nc(N)n1 [Example 708, 6-(3-chloro-2-methyl-phenyl)-N4-[(2E)-3,7-dimethylocta-2,6-dienyl]pyrimidine-2,4-diamine]
< 200 nM | Cc1c(Cl)cccc1-c1cc(NC/C(=C\F)CCc2ccc(F)cc2)nc(N)n1 [Example 721, 6-(3-chloro-2-methyl-phenyl)-N4-[(2Z)-2-(fluoromethylene)-4-(4-fluorophenyl)butyl]pyrimidine-2,4-diamine]
2000 to 10000 nM | Cc1cc(C[S+]([O-])CCNc2cc(-c3cccc(Cl)c3C)nc(N)n2)no1 (centres unmarked) [Example 725, 6-(3-chloro-2-methyl-phenyl)-N4-[2-[(5-methylisoxazol-3-yl)methylsulfinyl]ethyl]pyrimidine-2,4-diamine]
< 200 nM | C=C(C)CNc1cc(-c2cccc(Cl)c2C)nc(N)n1 [Example 729, 6-(3-chloro-2-methyl-phenyl)-N4-(2-methylallyl)pyrimidine-2,4-diamine]
< 200 nM | Cc1c(Cl)cccc1-c1cc(NCCc2cccnc2)nc(N)n1 [Example 733, 6-(3-chloro-2-methyl-phenyl)-N4-[2-(3-pyridyl)ethyl]pyrimidine-2,4-diamine]
< 200 nM | Cc1c(Cl)cccc1-c1nc(N)nc2c1CCN2 [Example 742, 4-(3-chloro-2-methylphenyl)-5H,6H,7H-pyrrolo[2,3-d]pyrimidin-2-amine]
< 200 nM | Cc1c(Cl)cccc1-c1nc(N)nc2c1C[C@@H](C)N2 [Example 743, (6R)-4-(3-Chloro-2-methylphenyl)-6-methyl-5H,6H,7H-pyrrolo[2,3-d]pyrimidin-2-amine]

Each molecule was assayed on activated T-lymphocytes (assay: Cellular assay, primary T-lymphocytes activated with CD3/CD28 Dynabeads). Details: not given.
Type: cell-based, human
Experimental: as §1
as §2, with “Primary T-lymphocytes are isolated from donated human blood and thereafter activated with CD3/CD28 Dynabeads. The T-lymphocytes” for “The T-lymphocytes”

Structure (SMILES) | effect on activated T-lymphocytes (FIG. 1)
Cc1c(Cl)cccc1-c1cc(NCCc2ccc(S(N)(=O)=O)cc2)nc(N)n1 [Example 297, 4-(2-{[2-amino-6-(3-chloro-2-methylphenyl)pyrimidin-4-yl]amino}ethyl)benzene-1-sulfonamide] | selectively kills
